Values after ≈ are worked out from the molar mass of the structure shown.

Among the data in patent US8119148B2, “Suspension comprising oxcarbazepine” (Novartis Pharmaceuticals Corporation, priority 1999, dated 2012) are solubility values, retold here.

The series is described as follows: Solubility in water. The format is physicochemical. As to conditions: pH 5.8, water, at 25° C. and pH of 5.8 to 6.0. The procedure:
A wide range of container sizes may be employed. Container size may be conveniently categorised as Low-Volume, e.g., 100 ml or less and High-Volume, e.g., above 100 ml and typically 250 ml.

The compound `NC(=O)N1c2ccccc2CC(=O)c2ccccc21` [oxcarbazepine, 10,11-Dihydro-10-oxo-5H-di-benz[b,f]azepine-5-carboxamide] displayed a solubility of 3200 to 4200 µg/mL (≈ 12.7 to 16.6 mM).

By solubility is commonly meant how much of the substance goes into solution per volume. A higher solubility goes with a readily soluble substance.
